Results: patent publication US20260108521A1, “GSPT1 DEGRADERS, COMPOSITIONS COMPRISING THE DEGRADER, AND METHODS OF USING THE SAME” (BIOFRONT LTD, priority 2022, published 2026)

Experiments:
GSPT1 protein = biological target: T1, GSPT1 protein (Homo sapiens, UniProt P15170+Q96SW2); assay: GSPT1 degradation assay (western blot) in HL-60 cells; assay type: cell-based; conditions: GSPT1 protein level, 2h incubation, western blot normalized to beta-Actin; for inhibition at 0.1 µM: 0.1 μM compound; for inhibition at 1 µM: 1 μM compound
T1 construct: endogenous in cells; host or cells: HL-60 cells
T1 sequence (P15170 whole entry): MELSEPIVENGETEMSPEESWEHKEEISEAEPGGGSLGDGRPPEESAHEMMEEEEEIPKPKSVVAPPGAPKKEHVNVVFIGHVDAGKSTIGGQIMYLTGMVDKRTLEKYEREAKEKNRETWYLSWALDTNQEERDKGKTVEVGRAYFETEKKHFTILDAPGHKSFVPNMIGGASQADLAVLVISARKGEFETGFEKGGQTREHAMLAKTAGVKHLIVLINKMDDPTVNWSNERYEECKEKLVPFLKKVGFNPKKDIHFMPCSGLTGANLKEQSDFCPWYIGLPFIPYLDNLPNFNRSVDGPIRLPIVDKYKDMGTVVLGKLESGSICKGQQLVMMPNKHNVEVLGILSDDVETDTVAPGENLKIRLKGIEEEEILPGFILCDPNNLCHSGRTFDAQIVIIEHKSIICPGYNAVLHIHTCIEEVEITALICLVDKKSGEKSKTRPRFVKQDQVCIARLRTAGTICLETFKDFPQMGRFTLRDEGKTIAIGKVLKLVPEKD
T1 sequence (Q96SW2 whole entry): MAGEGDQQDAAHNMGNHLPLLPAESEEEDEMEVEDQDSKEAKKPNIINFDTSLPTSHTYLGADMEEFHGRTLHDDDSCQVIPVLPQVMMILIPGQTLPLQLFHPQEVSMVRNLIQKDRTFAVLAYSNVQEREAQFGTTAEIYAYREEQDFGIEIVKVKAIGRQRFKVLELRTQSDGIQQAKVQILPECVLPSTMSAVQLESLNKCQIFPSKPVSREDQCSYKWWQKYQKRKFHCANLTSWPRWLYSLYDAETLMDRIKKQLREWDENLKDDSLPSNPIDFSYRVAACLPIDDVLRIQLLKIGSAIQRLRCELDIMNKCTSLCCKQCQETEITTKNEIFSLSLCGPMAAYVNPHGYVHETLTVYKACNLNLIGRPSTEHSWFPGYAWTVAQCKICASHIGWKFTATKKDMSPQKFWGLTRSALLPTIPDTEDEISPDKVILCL
T1 sequence (Q16531 whole entry partner): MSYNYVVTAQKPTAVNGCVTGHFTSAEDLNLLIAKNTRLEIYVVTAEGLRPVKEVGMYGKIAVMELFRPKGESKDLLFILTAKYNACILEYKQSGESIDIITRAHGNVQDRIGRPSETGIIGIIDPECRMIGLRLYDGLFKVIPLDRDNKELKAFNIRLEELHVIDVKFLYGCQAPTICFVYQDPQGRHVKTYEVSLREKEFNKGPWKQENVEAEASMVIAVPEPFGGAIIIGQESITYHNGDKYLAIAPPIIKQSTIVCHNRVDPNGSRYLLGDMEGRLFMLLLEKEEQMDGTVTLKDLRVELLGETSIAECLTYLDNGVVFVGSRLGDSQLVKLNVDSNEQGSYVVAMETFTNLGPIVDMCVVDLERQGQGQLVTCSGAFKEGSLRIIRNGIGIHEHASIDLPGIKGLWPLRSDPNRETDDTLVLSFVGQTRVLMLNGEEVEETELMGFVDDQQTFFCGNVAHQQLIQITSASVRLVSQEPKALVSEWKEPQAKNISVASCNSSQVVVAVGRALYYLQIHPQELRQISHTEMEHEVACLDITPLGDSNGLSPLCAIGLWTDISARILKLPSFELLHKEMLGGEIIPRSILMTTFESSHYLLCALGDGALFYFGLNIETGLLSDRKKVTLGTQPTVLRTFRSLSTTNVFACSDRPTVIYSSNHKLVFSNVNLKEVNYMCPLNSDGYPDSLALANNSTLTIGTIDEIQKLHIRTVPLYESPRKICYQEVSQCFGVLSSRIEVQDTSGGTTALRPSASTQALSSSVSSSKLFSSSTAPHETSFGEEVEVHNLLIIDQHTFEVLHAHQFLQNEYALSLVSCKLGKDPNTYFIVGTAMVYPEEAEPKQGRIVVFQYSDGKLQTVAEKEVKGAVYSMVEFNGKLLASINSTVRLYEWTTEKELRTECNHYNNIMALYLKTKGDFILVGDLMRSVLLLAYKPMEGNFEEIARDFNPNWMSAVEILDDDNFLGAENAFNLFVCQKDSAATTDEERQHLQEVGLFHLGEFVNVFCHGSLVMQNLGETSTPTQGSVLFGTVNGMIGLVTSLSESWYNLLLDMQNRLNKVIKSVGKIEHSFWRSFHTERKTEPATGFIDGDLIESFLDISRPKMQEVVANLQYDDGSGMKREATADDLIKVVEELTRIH
Method: HL-60 cells (4×10^^6 cells/well) were seeded in 6-well culture plate (Costar, 3516) and treated with a variety of concentrations of test compound. After 2h incubation, cells were collected and lysed. The protein concentration was determined by BCA protein assay kit from Thermo (23227). The GSPT1 protein level was determined by western blots, using GSPT1 polyclonal antibody. Proteins were loaded into each well of the pre-casting gels and subjected to electrophoretic separation by SDS-PAGE. The protein resolved by SDS-PAGE were transferred to PVDF, blocked by 5% skim milk and probed with anti-GSPT1 antibody (Proteintech, 10763-1-AP) or anti-β-actin antibody (CST, 3700S), using following standard western blotting procedure. Blots intensities were quantified using ImageJ software and the intensity of GSPT1 bands were normalized to beta-Actin bands, respectively. The GSPT1 degradation results were then calculated. Reported compound C84971 (see WO2021126974A1 and WO2021126973A1) was used as a reference.

HL-60 cells = assay: Cell viability assay (CellTiter-Glo); assay type: cell-based; conditions: Homo sapiens, 72 h incubation, 6-point serial dilution
Method: HL-60 cells were seeded at a density of 7000 cells per well in 96-well culture plates (Corning 3903) with IMDM and treated with test compounds following a 6-point serial dilution. RPMI 1640 (0.1% DMSO) was used as control for each well. After 72 h incubation, cell viability was determined using the CellTiter-Glo assay kit (Promega, G9242) according to the manufacturer's instructions. The dose-response curves were determined and IC50 values were calculated using the GraphPad Prism software following a nonlinear regression method.

Structure (SMILES)	inhibition at 0.1 µM (GSPT1 protein)	inhibition at 1 µM (GSPT1 protein)	IC50 (HL-60 cells)
O=C1CCC(N2C(=O)c3ccc(N4CCC(CN5CCCN(C6CCCCC6)C5=O)CC4)cc3C2=O)C(=O)N1 (stereo not drawn) [Compound 5, 5-(4-((3-cyclohexyl-2-oxotetrahydropyrimidin-1(2H)-yl)methyl)piperidin-1-yl)-2-(2,6-dioxopiperidin-3-yl) isoindoline-1,3-dione]	17%	7%	–
O=C1CCC(N2C(=O)c3ccc(N4CC(CCN5CCCN(c6cccc(-c7cnccc7Cl)c6)C5=O)C4)cc3C2=O)C(=O)N1 (stereo not drawn) [Compound 8, 5-(3-(2-(3-(3-(4-chloropyridin-3-yl)phenyl)-2-oxotetrahydropyrimidin-1(2H)-yl)ethyl)azetidin-1-yl)-2-(2,6-dioxopiperidin-3-yl)isoindoline-1,3-dione]	70%	63%	196 nM
O=C1CCC(c2ccc(N3CCC(CN4CCCN(c5ccccc5)C4=O)CC3)cc2)C(=O)N1 (stereo not drawn) [Compound 13, 3-(4-{4-[(2-oxo-3-phenyl-1,3-diazinan-1-yl)methyl]piperidin-1-yl}phenyl) piperidine-2,6-dione]	0%	0%	–
O=C1CCC(N2C(=O)c3ccc(N4CCC(CN5CCN(Cc6ccc(F)cc6)C5=O)CC4)cc3C2=O)C(=O)N1 (stereo not drawn) [Compound 17, 2-(2,6-dioxopiperidin-3-yl)-5-(4-((3-(4-fluorobenzyl)-2-oxoimidazolidin-1-yl)methyl)piperidin-1-yl)isoindoline-1,3-dione]	36%	22%	–
O=C1CCC(c2ccc(N3CCC(CCN4CCCN(c5ccccc5)C4=O)CC3)cc2)C(=O)N1 (stereo not drawn) [Compound 20, 3-(4-(4-(2-(2-oxo-3-phenyltetrahydropyrimidin-1(2H)-yl)ethyl)piperidin-1-yl)phenyl)piperidine-2,6-dione]	0%	0%	–
O=C1CCC(N2C(=O)c3ccc(N4CC(CCN5CCCN(c6cccc(-c7ccn8ccnc8c7)c6)C5=O)C4)cc3C2=O)C(=O)N1 (stereo not drawn) [Compound 21, 2-(2,6-dioxopiperidin-3-yl)-5-(3-(2-(3-(3-(imidazo[1,2-a]pyridin-7-yl)phenyl)-2-oxotetrahydropyrimidin-1(2H)-yl)ethyl)azetidin-1-yl)isoindoline-1,3-dione]	35%	40%	–
Cc1nc2ncc(-c3cccc(N4CCCN(CCC5CN(c6ccc7c(c6)C(=O)N(C6CCC(=O)NC6=O)C7=O)C5)C4=O)c3)cc2o1 (stereo not drawn) [Compound 24, 2-(2,6-dioxopiperidin-3-yl)-5-(3-(2-(3-(3-(2-methyloxazolo[4,5-b]pyridin-6-yl)phenyl)-2-oxotetrahydropyrimidin-1(2H)-yl)ethyl)azetidin-1-yl)isoindoline-1,3-dione]	26%	29%	–
CNC(=O)c1ccc(-c2cccc(N3CCCN(CC4CCN(c5ccc6c(c5)C(=O)N(C5CCC(=O)NC5=O)C6=O)CC4)C3=O)c2)c(Cl)c1 (stereo not drawn) [Compound 31, 3-chloro-4-{3-[3-({1-[2-(2,6-dioxopiperidin-3-yl)-1,3-dioxoisoindol-5-yl]piperidin-4-yl}methyl)-2-oxo-1,3-diazinan-1-yl]phenyl}-N-methylbenzamide]	45%	55%	–
CN(C)C(=O)c1ccc(-c2cccc(N3CCCN(CC4CCN(c5ccc6c(c5)C(=O)N(C5CCC(=O)NC5=O)C6=O)CC4)C3=O)c2)c(Cl)c1 (stereo not drawn) [Compound 32, 3-chloro-4-{3-[3-({1-[2-(2,6-dioxopiperidin-3-yl)-1,3-dioxoisoindol-5-yl]piperidin-4-yl}methyl)-2-oxo-1,3-diazinan-1-yl]phenyl}-N,N-dimethylbenzamide]	< 10%	< 10%	–
CS(=O)(=O)c1ccc(-c2cccc(N3CCCN(CC4CCN(c5ccc6c(c5)C(=O)N(C5CCC(=O)NC5=O)C6=O)CC4)C3=O)c2)c(Cl)c1 (stereo not drawn) [Compound 33, 5-[4-({3-[3-(2-chloro-4-methanesulfonylphenyl)phenyl]-2-oxo-1,3-diazinan-1-yl}methyl)piperidin-1-yl]-2-(2,6-dioxopiperidin-3-yl)isoindole-1,3-dione]	< 10%	15%	–
CCn1ncc2ccc(-c3cccc(N4CCCN(CC5CCN(c6ccc7c(c6)C(=O)N(C6CCC(=O)NC6=O)C7=O)CC5)C4=O)c3)c(Cl)c21 (stereo not drawn) [Compound 34, 5-(4-((3-(3-(7-chloro-1-ethyl-1H-indazol-6-yl)phenyl)-2-oxotetrahydropyrimidin-1(2H)-yl)methyl)piperidin-1-yl)-2-(2,6-dioxopiperidin-3-yl)isoindoline-1,3-dione]	58%	53%	–
CCc1c[nH]c2ccc(-c3cc(N4CCCN(CC5CCN(c6ccc7c(c6)C(=O)N(C6CCC(=O)NC6=O)C7=O)CC5)C4=O)ccn3)c(Cl)c12 (stereo not drawn) [Compound 35, 5-(4-((3-(2-(4-chloro-3-ethyl-1H-indol-5-yl)pyridin-4-yl)-2-oxotetrahydropyrimidin-1(2H)-yl)methyl)piperidin-1-yl)-2-(2,6-dioxopiperidin-3-yl)isoindoline-1,3-dione]	0%	0%	–

Second part, the molecule after the results:

inhibition at 0.1 µM (GSPT1 protein)	inhibition at 1 µM (GSPT1 protein)	IC50 (HL-60 cells)	Structure (SMILES)
45%	51%	1460 nM	O=C1CCC(N2C(=O)c3ccc(N4CCC(CN5CCCN(c6ccccc6)C5=O)CC4)cc3C2=O)C(=O)N1 (stereo not drawn) [Compound 1, 2-(2,6-dioxopiperidin-3-yl)-5-{4-[(2-oxo-3-phenyl-1,3-diazinan-1-yl)methyl]piperidin-1-yl}isoindole-1,3-dione]
0%	0%	–	O=C1CCC(N2C(=O)c3ccc(N4CCC(CN5CCN(c6ccccc6)C5=O)CC4)cc3C2=O)C(=O)N1 (stereo not drawn) [Compound 2, 2-(2,6-dioxopiperidin-3-yl)-5-(4-((2-oxo-3-phenylimidazolidin-1-yl)methyl)piperidin-1-yl)isoindoline-1,3-dione]
30%	48%	234 nM	O=C1CCC(N2C(=O)c3ccc(N4CCC(CN5CCCN(c6cccc(-c7cnccc7Cl)c6)C5=O)CC4)cc3C2=O)C(=O)N1 (stereo not drawn) [Compound 3, 5-(4-((3-(3-(4-chloropyridin-3-yl)phenyl)-2-oxotetrahydropyrimidin-1(2H)-yl)methyl)piperidin-1-yl)-2-(2,6-dioxopiperidin-3-yl)isoindoline-1,3-dione]
0%	0%	–	O=C1CCC(N2C(=O)c3ccc(N4CCC(CN5CCCN(c6ccccn6)C5=O)CC4)cc3C2=O)C(=O)N1 (stereo not drawn) [Compound 4, 2-(2,6-dioxopiperidin-3-yl)-5-(4-{[2-oxo-3-(pyridin-2-yl)-1,3-diazinan-1-yl]methyl}piperidin-1-yl)isoindole-1,3-dione]
46%	52%	400 nM	O=C1CCC(N2C(=O)c3ccc(N4CCC(CN5CCCCN(c6ccccc6)C5=O)CC4)cc3C2=O)C(=O)N1 (stereo not drawn) [Compound 6, 2-(2,6-dioxopiperidin-3-yl)-5-(4-((2-oxo-3-phenyl-1,3-diazepan-1-yl)methyl)piperidin-1-yl)isoindoline-1,3-dione]
0%	10%	–	CC(C)(C)N1CCCN(CC2CCN(c3ccc4c(c3)C(=O)N(C3CCC(=O)NC3=O)C4=O)CC2)C1=O (stereo not drawn) [Compound 7, 5-(4-((3-(tert-butyl)-2-oxotetrahydropyrimidin-1(2H)-yl)methyl)piperidin-1-yl)-2-(2,6-dioxopiperidin-3-yl)isoindoline-1,3-dione]
0%	0%	–	O=C1CCC(N2C(=O)c3ccc(N4CCC(CN5CCCN(c6cccc(Cl)c6)C5=O)CC4)cc3C2=O)C(=O)N1 (stereo not drawn) [Compound 14, 5-(4-((3-(3-chlorophenyl)-2-oxotetrahydropyrimidin-1(2H)-yl)methyl)piperidin-1-yl)-2-(2,6-dioxopiperidin-3-yl)isoindoline-1,3-dione]
26%	32%	–	O=C1CCC(N2C(=O)c3ccc(N4CCC(CN5CCCN(Cc6ccc(F)cc6)C5=O)CC4)cc3C2=O)C(=O)N1 (stereo not drawn) [Compound 16, 2-(2,6-dioxopiperidin-3-yl)-5-(4-((3-(4-fluorobenzyl)-2-oxotetrahydropyrimidin-1(2H)-yl)methyl)piperidin-1-yl)isoindoline-1,3-dione]
32%	36%	–	Cc1csc(N2CCCN(CC3CCN(c4ccc5c(c4)C(=O)N(C4CCC(=O)NC4=O)C5=O)CC3)C2=O)n1 (stereo not drawn) [Compound 18, 2-(2,6-dioxopiperidin-3-yl)-5-(4-{[3-(4-methyl-1,3-thiazol-2-yl)-2-oxo-1,3-diazinan-1-yl]methyl}piperidin-1-yl)isoindole-1,3-dione]
37%	45%	–	CCNc1ccc(-c2cccc(N3CCCN(CC4CCN(c5ccc6c(c5)C(=O)N(C5CCC(=O)NC5=O)C6=O)CC4)C3=O)c2)c(Cl)c1 (stereo not drawn) [Compound 30, 5-{4-[(3-{3-[2-chloro-4-(ethylamino)phenyl]phenyl}-2-oxo-1,3-diazinan-1-yl)methyl]piperidin-1-yl}-2-(2,6-dioxopiperidin-3-yl)isoindole-1,3-dione]
